Experimental data from ChEMBL document CHEMBL5325471, “Identification of new modulator of DNA repairing pathways based on natural product (±)-peharmaline A” (Bioorg Med Chem, 2023).
Calls of active or inactive are those of the source. No cut-off for these calls is given here.

Legend:
PC-3 = assay: Antiproliferative activity against human PC-3 cells assessed as cell growth inhibition incubated for 44 hrs by MTT assay; format: functional, cell-based; conditions: PC-3, 44 h
MCF7 = assay: Antiproliferative activity against human MCF7 cells assessed as cell growth inhibition incubated for 44 hrs by MTT assay; format: functional, cell-based; conditions: MCF7, 44 h
HCT-116 [1] = assay: Antiproliferative activity against human HCT-116 cells assessed as cell growth inhibition incubated for 44 hrs by MTT assay; format: functional, cell-based; conditions: HCT-116, 44 h
[2] = Cmax in BALB/c mouse at 20 mg/kg, ip measured upto 24 hrs by LC-MS/MS analysis; format: ADME, organism-based; design: dose 20 mg/kg, time < 24 hrs, route ip; conditions: in vivo
[3] = Elimination half life in BALB/c mouse at 20 mg/kg, ip measured upto 24 hrs by LC-MS/MS analysis; format: ADME, organism-based; conditions: in vivo, read-out: beta t1/2 (converted)
[4] = AUC (0 to t) in BALB/c mouse at 20 mg/kg, ip measured upto 24 hrs by LC-MS/MS analysis; format: ADME, organism-based; design: time < 24 hrs, dose 20 mg/kg, route ip; conditions: in vivo
HCT-116 [5] = assay: Induction of DNA damage in human HCT-116 cell assessed as increase in olive tail moment at 0.5 uM incubated for 24 hrs by EtBr-based alkaline Comet assay (Rvb= 0.26%); format: functional
HCT-116 [6] = assay: Induction of DNA damage in human HCT-116 cell assessed as comet tail formation at 0.5 uM incubated for 24 hrs by EtBr-based alkaline Comet assay (Rvb= 2.99 %); format: functional
HCT-116 [7] = assay: Induction of cell cycle arrest in human HCT-116 cells assessed as accumulation of cells at G1 phase at 0.5 uM incubated for 24 hrs by RNase/PI staining-based FACS flow cytometry analysis (reference value: 51 %); format: functional
HCT-116 [8] = assay: Induction of cell cycle arrest in human HCT-116 cells assessed as accumulation of cells at G1 phase at 1 uM incubated for 24 hrs by RNase/PI staining-based FACS flow cytometry analysis (reference value: 51 %); format: functional
HCT-116 [9] = assay: Induction of cell cycle arrest in human HCT-116 cells assessed as accumulation of cells at G1 phase at 2 uM incubated for 24 hrs by RNase/PI staining-based FACS flow cytometry analysis (reference value: 51 %); format: functional
HCT-116 [10] = assay: Induction of cell cycle arrest in human HCT-116 cells assessed as accumulation of cells at G2 phase at 0.5 uM incubated for 24 hrs by RNase/PI staining-based FACS flow cytometry analysis (reference value: 33 %); format: functional
HCT-116 [11] = assay: Induction of cell cycle arrest in human HCT-116 cells assessed as accumulation of cells at S phase at 0.5 uM incubated for 24 hrs by RNase/PI staining-based FACS flow cytometry analysis (reference value: 11 %); format: functional
HCT-116 [12] = assay: Induction of cell cycle arrest in human HCT-116 cells assessed as accumulation of cells at S phase at 1 uM incubated for 24 hrs by RNase/PI staining-based FACS flow cytometry analysis (reference value: 11 %); format: functional
HCT-116 [13] = assay: Induction of cell cycle arrest in human HCT-116 cells assessed as accumulation of cells at S phase at 2 uM incubated for 24 hrs by RNase/PI staining-based FACS flow cytometry analysis (reference value: 11 %); format: functional
HCT-116 [14] = assay: Induction of cell cycle arrest in human HCT-116 cells assessed as accumulation of cells at G2 phase at 1 uM incubated for 24 hrs by RNase/PI staining-based FACS flow cytometry analysis (reference value: 33 %); format: functional
HCT-116 [15] = assay: Induction of DNA damage in human HCT-116 cells assessed as increase in phosphorylated gamma-H2AX foci formation at 0.5 to 2 uM incubated for 24 hrs by DAPI staining based immunofluorescence analysis; format: functional, cell-based; conditions: dose 0.5-2 µM
HCT-116 [16] = assay: Induction of DNA damage in human HCT-116 cells assessed as micronuclei formation at 0.5 to 2 uM incubated for 24 hrs by DAPI staining based immunofluorescence analysis; format: functional, cell-based; conditions: dose 0.5-2 µM
HCT-116 [17] = assay: Inhibition of DNA repairing pathway in human HCT-116 cells assessed as downregulation of Rad51 protein expression at 0.25 to 2 uM incubated for 24 hrs by immunoblotting analysis; format: functional, cell-based; conditions: dose 0.25-2 µM
HCT-116 [18] = assay: Inhibition of DNA repairing pathway in human HCT-116 cells assessed as downregulation of MRE11 protein expression at 0.25 to 2 uM incubated for 24 hrs by immunoblotting analysis; format: functional, cell-based; conditions: dose 0.25-2 µM
HCT-116 [19] = assay: Inhibition of DNA repairing pathway in human HCT-116 cells assessed as downregulation of XRCC11 protein expression at 0.25 to 2 uM incubated for 24 hrs by immunoblotting analysis; format: functional, cell-based; conditions: dose 0.25-2 µM
HCT-116 [20] = assay: Inhibition of epithelial-to-mesenchymal transition in human HCT-116 cells assessed as downregulation of Twist-1 protein expression by immunoblot analysis; format: functional, cell-based
HCT-116 [21] = assay: Inhibition of epithelial-to-mesenchymal transition in human HCT-116 cells assessed as downregulation of Snail-1 protein expression by immunoblot analysis; format: functional, cell-based
4T1 = assay: Antitumor activity against mouse 4T1 cells implanted in BALB/c mouse assessed as reduction in tumor volume at 20 mg/kg, ip administered every alternate day for 2 weeks relative to control; format: functional; design: scale not given: the % may be the effect or the level left
HCT-116 [22] = assay: Induction of DNA damage in human HCT-116 cell assessed as increase in olive tail moment at 1 uM incubated for 24 hrs by EtBr-based alkaline Comet assay (Rvb= 0.26%); format: functional
HCT-116 [23] = assay: Induction of DNA damage in human HCT-116 cell assessed as increase in olive tail moment at 4 uM incubated for 24 hrs by EtBr-based alkaline Comet assay (Rvb= 0.26%); format: functional
HCT-116 [24] = assay: Induction of DNA damage in human HCT-116 cell assessed as comet tail formation at 1 uM incubated for 24 hrs by EtBr-based alkaline Comet assay (Rvb= 2.99 %); format: functional
HCT-116 [25] = assay: Induction of DNA damage in human HCT-116 cell assessed as comet tail formation at 2 uM incubated for 24 hrs by EtBr-based alkaline Comet assay (Rvb= 2.99 %); format: functional
HCT-116 [26] = assay: Induction of DNA damage in human HCT-116 cell assessed as comet tail formation at 4 uM incubated for 24 hrs by EtBr-based alkaline Comet assay (Rvb= 2.99 %); format: functional
[27] = Drug exposure in BALB/c mouse plasma at 20 mg/kg, ip measured upto 24 hrs by LC-MS/MS analysis; format: ADME, organism-based; design: dose 20 mg/kg, time < 24 hrs, route ip
HCT-116 [28] = assay: Inhibition of DNA repairing pathway in human HCT-116 cells assessed as increase in cleaved PARP level at 0.25 to 2 uM incubated for 24 hrs by immunoblotting analysis; format: functional, cell-based; conditions: dose 0.25-2 µM
HCT-116 [29] = assay: Inhibition of DNA repairing pathway in human HCT-116 cells assessed as increase in gamma-H2AX level at 0.25 to 2 uM incubated for 24 hrs by immunoblotting analysis; format: functional, cell-based; conditions: dose 0.25-2 µM
HCT-116 [30] = assay: Inhibition of DNA repairing pathway in human HCT-116 cells assessed as increase in p-Chk2 level at 0.25 to 2 uM incubated for 24 hrs by immunoblotting analysis; format: functional, cell-based; conditions: dose 0.25-2 µM
[31] = Toxicity in BALB/c mouse implanted with mouse 4T1 cells at 20 mg/kg, ip administered every alternate day for 2 weeks; format: organism-based; conditions: in vivo, 336 h

IC50 (PC-3): 6050 nM
IC50 (MCF7): 1410 nM
IC50 (HCT-116 [1]): 1020 nM
Cmax [2]: 4490 ng/mL
half-life [3]: 1.6 h
AUC(0-t) at 24 h [4]: 11000 ng·h/mL
AUC at 24 h [27]: > 25 µM·h
Structure (SMILES): COC(=O)[C@]1([C@H]2CCn3c2nc2ccccc2c3=O)NCCc2c1[nH]c1ccccc21 (racemic)
Activity (HCT-116 [5]): 5.21%
Activity (HCT-116 [6]): 31.99%
Activity (HCT-116 [7]): 66%
Activity (HCT-116 [8]): 71%
Activity (HCT-116 [9]): 74%
Activity (HCT-116 [10]): 24%
Activity (HCT-116 [11]): 7%
Activity (HCT-116 [12]): 7%
Activity (HCT-116 [13]): 4%
Activity (HCT-116 [14]): 17%
Activity (HCT-116 [15]): Active
Activity (HCT-116 [16]): Active
inhibition (HCT-116 [17]): Active
inhibition (HCT-116 [18]): Active
inhibition (HCT-116 [19]): Active
inhibition (HCT-116 [20]): Active
inhibition (HCT-116 [21]): Active
Activity (4T1): 89.3%
Activity (HCT-116 [22]): 9.53%
Activity (HCT-116 [23]): 24.72%
Activity (HCT-116 [24]): 48%
Activity (HCT-116 [25]): 51.03%
Activity (HCT-116 [26]): 61.4%
inhibition (HCT-116 [28]): Active
inhibition (HCT-116 [29]): Active
inhibition (HCT-116 [30]): Active
Activity [31]: Non-Toxic
